Data reported in patent US20260102499A1, “COMPOSITIONS WITH REDUCED N[…]” (INVENTIA HEALTHCARE LIMITED, priority 2022, published 2026).
Several values for one entry are separate records, joined by “and”; a condition that tells them apart may be missing. Identical values can stand only once.

Assay: Acceptable intake / acceptable level of nitrosamine impurities (Health Canada)
Conditions: based on a maximum daily dose of 2 mg for varenicline
Source text: International regulators such as United States Food and Drug Administration (USFDA), European Medicine Agency (EMA), and Health Canada have published recommendations with respect to ‘acceptable intake’ of nitrosamine impurities. ‘Acceptable intake’ (per day) of nitrosamine impurities varies with the impurity structure, molecular weight, and its toxicity potential. Table 1 illustrates the per day ‘acceptable intake’ of some nitrosamine impurities, as published by Health Canada.
‘Acceptable intake’ of a nitrosamine impurity, when applied to the maximum daily dose of a drug, provides ‘acceptable levels’ of the said nitrosamine impurity in pharmaceutical compositions containing the said drug. ‘Acceptable levels’ of a nitrosamine impurity are expressed in parts per million (ppm) or parts per billion (ppb), of the drug (by weight). For example, for varenicline (which contains amine), the ‘acceptable intake’ of the N-nitroso-varenicline (NNV) (nitrosamine impurity of the NDSRI type) is 37 ng/day, and the ‘acceptable level’ of NNV is 18.5 ppm based on a maximum daily dose of 2 mg for varenicline.

SMILES | acceptable level of NNV [ppm]
O=NN1CC2CC(C1)c1cc3nccnc3cc12 [N-nitroso-varenicline (NNV), N-nitroso-varenicline] | 18.5

Assay: not given
Conditions: per day, as published by Health Canada; cited from earlier work

SMILES | Acceptable Intake (AI) Levels
CN1CCN(N=O)CC1 [1-methyl-4-nitrosopiperazine (MNP), 1-methyl-4-nitrosopiperazine] | 96.0 ng/day
O=NN1CCn2c(nnc2C(F)(F)F)C1 [7-Nitroso-3-(trifluoromethyl)-5,6,7,8-tetrahydro[1,2,4]triazolo-[4,3-a]pyrazine] | 37.0 ng/day
CN(CCc1ccccc1)N=O [N-methyl-N-nitroso-phenethylamine] | 8.0 ng/day
O=NN1CC=CCC1 [N-nitroso-1,2,3,6-tetrahydropyridine] | 37.0 ng/day
CN(CCCC(=O)O)N=O [N-nitroso-4-(methylamino)butyric acid] | 96.0 ng/day
CCCCN(CCCC)N=O [N-nitroso-dibutylamine (NDBA), N-nitroso-dibutylamine] | 26.5 ng/day
CCN(CC)N=O [N-nitroso-diethylamine (NDEA), N-nitroso-diethylamine] | 26.5 ng/day
CC(C)N(N=O)C(C)C [N-nitroso-diisopropylamine (NDIPA), N-nitroso-diisopropylamine] | 26.5 ng/day
CN(C)N=O [N-nitroso-dimethylamine (NDMA), N-nitroso-dimethylamine] | 96.0 ng/day
CCCN(CCC)N=O [N-nitroso-dipropylamine (NDPA), N-nitroso-dipropylamine] | 26.5 ng/day
CN(CC[C@H](Oc1cccc2ccccc12)c1cccs1)N=O [N-nitroso-duloxetine (NDLX), N-nitroso-duloxetine] | 100.0 ng/day
CCN(N=O)C(C)C [N-nitroso-ethylisopropylamine (NEIPA), N-nitroso-ethylisopropylamine] | 26.5 ng/day
COC(=O)C(c1ccccc1)C1CCCCN1N=O (stereo not shown) [N-nitroso-methylphenidate] | 1300.0 ng/day
CN(CCC=C1c2ccccc2CCc2ccccc21)N=O [N-nitroso-nortriptyline (NNORT), N-nitroso-nortriptyline] | 8.0 ng/day
O=NN1CCCCC1 [N-nitroso-piperidine] | 1300.0 ng/day
C#CCN(N=O)[C@@H]1CCc2ccccc21 [N-nitroso-rasagiline] | 18.0 ng/day
O=NN1CC2CC(C1)c1cc3nccnc3cc12 [N-nitroso-varenicline (NNV), N-nitroso-varenicline] | 37 ng/day and 37.0 ng/day
O=NN1CCOCC1 [N-nitrosomorpholine (NMOR), N-nitrosomorpholine] | 127.0 ng/day
